# Source: patent US9744196B2, “Composition for parenteral administration, method for producing and method use thereof” (N2 PHARMACEUTICALS LTD, priority 2013, dated 2017)
# Test system: white rats
# Test: Adaptogenic (antistress) properties, shaker-induced transport stress
# Assay type: in vivo
# Method: Tests were conducted on 84 white rats and 36 white mice using pharmacological, haematological, biochemical and immunologic assays known in the art. Upon studying beneficial effects of composition A on the organisms of laboratory animals, certain haematological and immunobiological indices of the test and control animals were considered. Haematological parameters were evaluated in blood specimens by methods known in the art: white blood cells count per 1 cubic millimeter using Gorjaev's chamber. The following immunobiological indices were counted: blood protein content, glucose, phagocytosis and a number of other parameters, characterizing condition of an organism. The total protein content in blood serum was measured by refractometric analysis. Refractive index of blood serum depends mainly on the amount of proteins.
# Glucose concentration was measured using the ortho-toluidine method based on staining of glucose compound with ortho-toluidine in acetic acid solution, the intensity of said being proportional to the glucose concentration.
# The test was conducted on 12 rats, 4 animals being in each of three groups. Stress in experimental white rats was induced using a shaking machine simulating transport (physical) stress. The box with animals was placed onto the shaker and held atop the operating machine for 30-40 min. The most informative parameters, characterizing the onset and development of stress response (stress mediators): glucose, total protein and leukocytes (WBC) levels, were measured in blood of the white rats.
# Composition A was administered to the animals of the 1st group intramuscularly 3 days previous to stress induction in a dose of 0.2 ml. 2.5% solution of neuroleptic agent aminazin in a dose of 0.5 mg per capita was administered to the animals of the 2nd group. A normal saline solution was administered intramuscularly to the animals of the 3rd (control) group. Rats' blood examination to estimate the above parameters was performed 1 h and 24 h after stress induction.
# [1] = 24 hours after stress induction
smiles,measurement,setting,value
"CN(C)CCCN1c2ccccc2Sc2ccc(Cl)cc21 [Aminazin, aminazin]",Glucose,1 hour after stress induction,6.46 ± 0.45 mmol/L
same,Leukocytes (WBC),1 hour after stress induction,4.3 ± 0.4 10^3/uL
same,Total protein,1 hour after stress induction,66.0 ± 0.5 g/L
same,Glucose,"1 hour after stress induction, listed as aminazin",6.46 ± 0.45 mmol/L
same,Glucose,[1],6.25 ± 0.3 mmol/L
same,Leukocytes (WBC),[1],6.1 ± 0.3 10^3/uL
same,Total protein,[1],72.4 ± 1.6 g/L
same,Glucose,"24 hours after stress induction, listed as aminazin",6.25 ± 0.3 mmol/L
